Laboratory results from US5656654A, “Arylidene and heteroarylidene oxindole derivatives and process for their preparation” (Farmitalia Carlo Erba S.r.l., priority 1993, dated 1997).

What was measured:
[1] = molecular target: T1, p45 v-abl kinase (Abelson murine leukemia virus, UniProt P00521); assay: p45 v-abl Kinase Assay ((Val^5)-Angiotensin II phosphorylation, in vitro); type: biochemical
T1 construct: by cited methods bacterially expressed (E. coli)
Description: p45 v-abl kinase purification. The enzyme used in our test was the p45 v-abl tyrosine kinase which represents the catalytic domain of the Abelson tyrosine kinase (isolated from the Abelson murine leukemia virus). The p45 v-abl kinase was produced and isolated as described by Wang et al. in J. Biol. Chem. 260, 64 (1985) and by Ferguson et al. in J. Biol. Chem. 260, 3652 (1985) and in Biochem. J. 257, 321 (1989).
p45 v-abl Kinase Assay. (Val^5)-Angiotensin II phosphorylation was performed by incubation with 40 ng of purified abl-kinase and (γ-^32 P)-ATP, in 50 μl of buffer containing Tris-HCl 25 mM, pH 8.0, MgCl2 10 mM and dithiothreitol 0.1 mM (kinase buffer). The reaction mixture was incubated for the indicated time at 30° C. and the reaction stopped by adding 50 μl of 5% trichloroacetic acid. After a brief incubation on ice, tubes were centrifuged. The supernatants were spotted on phosphocellulose paper squares (Whatman P-81) and washed extensively in acetic acid. The radioactivity bound to dried phosphocellulose squares was measured in a liquid scintillation counter. IC50 values were calculated from triplicate determinations of each experimental point. Each inhibitor was tested at concentrations ranging from […] in the presence of fixed concentrations of peptide (2 mM) and ATP (50 μM).
(§1) The inhibitory activity data for a representative group of compounds according to the present invention, obtained both in the in vitro p45 v-abl kinase assay and in the in vivo human chronic myeloid leukemia K 562 cell growth inhibition assay described above, are set out in following Table 1.

[2] = test system: K562 cells (human chronic myeloid leukemia); assay: K562 cell growth inhibition assay ([^3-H]-Thymidine, headed In Vivo ASSAY); type: cell-based; conditions: K562 cells in suspension, 66 h, with or without 10% foetal calf serum
Description: K562 cell growth inhibition assay. 1 ml of K562 cells, grown in suspension, were incubated for 66 h with or without 10% foetal calf serum in the presence of 1 μCi of [^3 -H]-Thymidine. Cells were harvested, washed three times in cold PBS and treated with 5% trichloroacetic acid for 5 min on ice. After a wash in ethanol: ether 2:1, the DNA was extracted by 0.5N NaOH for 2 h at room temperature. The extract was counted in a liquid scintillation counter.
as §1

T1 sequence (P00521 whole entry): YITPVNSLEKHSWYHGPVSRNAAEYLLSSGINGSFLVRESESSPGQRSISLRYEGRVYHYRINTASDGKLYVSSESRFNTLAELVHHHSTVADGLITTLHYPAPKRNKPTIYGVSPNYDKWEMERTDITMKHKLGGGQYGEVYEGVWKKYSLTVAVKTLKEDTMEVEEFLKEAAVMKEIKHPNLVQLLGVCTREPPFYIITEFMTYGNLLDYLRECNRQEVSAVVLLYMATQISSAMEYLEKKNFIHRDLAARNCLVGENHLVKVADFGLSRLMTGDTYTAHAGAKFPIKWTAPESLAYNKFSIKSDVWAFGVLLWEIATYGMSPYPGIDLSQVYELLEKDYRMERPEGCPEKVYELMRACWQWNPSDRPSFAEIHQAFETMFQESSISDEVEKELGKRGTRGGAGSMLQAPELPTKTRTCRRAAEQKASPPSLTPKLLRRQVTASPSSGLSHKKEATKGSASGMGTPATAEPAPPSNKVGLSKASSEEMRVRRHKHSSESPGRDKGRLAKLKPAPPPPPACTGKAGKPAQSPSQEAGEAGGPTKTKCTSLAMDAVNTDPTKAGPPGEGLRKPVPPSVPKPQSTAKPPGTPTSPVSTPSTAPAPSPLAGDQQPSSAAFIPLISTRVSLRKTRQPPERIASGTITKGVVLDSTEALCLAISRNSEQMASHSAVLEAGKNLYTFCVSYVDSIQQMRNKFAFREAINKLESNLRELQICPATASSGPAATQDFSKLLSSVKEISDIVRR

SMILES	IC50 [1] [µM]	IC50 [2] [µM]
N#Cc1ccc2[nH]cc(C=C3C(=O)Nc4ccccc43)c2c1 [FCE 27565, 3-[(5'-cyano-3'-indolyl)methylene]-2-oxindole]	2.4	–
Nc1ccc2c(c1)C(=Cc1ccc(O)c3ncccc13)C(=O)N2 [FCE 27518, 5-amino-3-[(8'-hydroxy-5'-quinolyl)methylene]-2-oxindole]	6.9	1.2
Nc1ccc2c(c1)C(=Cc1cc(O)c3c(c1O)CCCC3)C(=O)N2 [FCE 28360, 5-amino-3-[(1',4'-dihydroxy-2'-tetralyl)methylene]-2-oxindole]	4.7	6.25
O=C1Nc2ccccc2C1=Cc1c[nH]c2ccc(O)cc12 [FCE 27866, 3-[(5'-hydroxy-3'-indolyl)methylene]-2-oxindole]	5.2	8.75
COc1ccc2[nH]cc(C=C3C(=O)Nc4ccc(N)cc43)c2c1 [FCE 28436, 5-amino-3-[(5'-methoxy-3'-indolyl)methylene]-2-oxindole]	0.305	14.5
O=C1Nc2ccc(O)cc2C1=Cc1ccc(O)c2c1CCCC2 [FCE 28337, 5-hydroxy-3-[(4'-hydroxy-1'-tetralyl)methylene]-2-oxindole]	2.32	11.5
COc1ccc2[nH]cc(C=C3C(=O)Nc4ccc(O)cc43)c2c1 [FCE 28359, 5-hydroxy-3-[(5'-methoxy-3'-indolyl)methylene]-2-oxindole]	0.39	8.15
O=C1Nc2ccc(Br)cc2C1=Cc1ccc(O)c2ncccc12 [FCE 27996, 5-bromo-3-[(8'-hydroxy-5'-quinolyl)methylene]-2-oxindole]	2.6	0.62
Cc1[nH]c2ccccc2c1C=C1C(=O)Nc2ccccc21 [FCE 27566, 3-[(2'-methyl-3'-indolyl)methylene]-2-oxindole]	15.6	2.2
COc1ccc2[nH]cc(C=C3C(=O)Nc4ccccc43)c2c1 [FCE 27564, 3-[(5'-methoxy-3'-indolyl)methylene]-2-oxindole]	0.8	4.15
